Tests used:
[1] = test system: Desulfovibrio vulgaris (ATCC#29579); test: In vitro photodynamic disinfection of planktonic bacteria, aerobic and anaerobic (Example IX); assay type: cell-based
Description: An in vitro photodynamic disinfection model was used to evaluate antibacterial efficacy against a strain of bacteria commonly found in biofilms growing on the inner surface of industrial oil and gas pipelines. […] This organism is a facultative anaerobe, and typically grows in nature in environments that contain little or no oxygen. Thus, prior to the experiments the bacteria was grown on pre-reduced solid media (brucella blood agar enriched with haemin and vitamin K) at 37° C. under anaerobic conditions. The exposures to photodynamic disinfection were run in both anaerobic and aerobic conditions in order to determine the importance of local oxygen during the photoreaction. […] In addition, several experimental conditions were run in the presence of L-tryptophan, which is a known scavenger of singlet oxygen and other oxygen derived free radicals. The addition of L-tryptophan was designed to test whether the antimicrobial killing effect of photodynamic disinfection was in fact dependent on the generation of reactive forms of oxygen. […] In addition, controls consisting of exposure to either photosensitizer or illumination alone were run to ensure that neither of these variables contributed to bacterial killing on their own. For these photodynamic disinfection experiments, log phase planktonic bacterial inoculum was prepared to a concentration of 10^7 colony-forming units per milliliter (CFU/ml) in a buffered saline solution. […] After illumination, samples were serially diluted and plated on tryptic soy agar for 48 hours at 37° C. Raw surviving colony counts for each experimental condition were averaged and back-calculated given dilution factor to give data in CFU/ml. The data was presented as CFU/ml of surviving organisms after treatment, and kill rate was calculated as this value in experimental samples vs. control (no light, no photosensitizer) and expressed as both a log and percentage reduction in viability. The entire experimental protocol was performed in the dark, and all samples were exposed and plated one at a time to limit ambient light exposure and to maintain the exposure time of bacteria to test solution uniform across all replicates. All experimental and control conditions were run in triplicate for each individual experiment, and experiments were performed on three separate occasions to verify reproducibility.

[2] = test system: D. desulfuricans biofilms; test: Photodynamic disinfection of well-plate biofilms, broadband light, anaerobic (Example XI); assay type: cell-based, Desulfovibrio desulfuricans; conditions: 0.1%, then 60 second broadband illumination
Description: (§1) In this study, biofilms of sulfate reducing bacteria were treated with photodynamic disinfection as in Example X above. In these experiments, however, illumination of the biofilms was performed using a broadband (wide wavelength) light source instead of a laser. […] For the broadband light photodynamic disinfection exposures, biofilms of D. vulgaris and D. sulfuricans were grown on the inner surface of flat-bottomed 96-well plates. In brief, 50 μl of liquid inoculum in log growth phase was added to each well, and plates were then incubated (37° C.) on an […] shaker at 125 rpm for 48 hours in order to allow biofilm growth. […] After this growth period, plates were removed from the shaker into an anaerobic cabinet, where all photodynamic disinfection treatments were performed. […] Raw surviving colony counts for each experimental condition were averaged and back-calculated given dilution factor to give data in CFU/ml. The data was presented as CFU/ml of surviving organisms after treatment, and kill rate was calculated as this value in experimental samples vs. control (no light, no photosensitizer) and expressed as both a log and percentage reduction in viability. […]

[3] = test system: D. desulfuricans (ATCC#14563) biofilms; test: Photodynamic disinfection of peg biofilms, 670 nm laser, anaerobic (Example X); assay type: cell-based, Desulfovibrio desulfuricans; conditions: control: methylene blue formulation alone, no laser light
[4] = test system: D. vulgaris biofilms; test: Photodynamic disinfection of well-plate biofilms, broadband light, anaerobic (Example XI); assay type: cell-based, Desulfovibrio vulgaris; conditions: 0.1% w/v, 30 seconds, then 60 seconds broadband illumination (150 watt haloid lamp)
Description: as §1

[5] = test system: D. vulgaris (ATCC#29579) biofilms; test: Photodynamic disinfection of peg biofilms, 670 nm laser, anaerobic (Example X); assay type: cell-based, Desulfovibrio vulgaris; conditions: control: methylene blue formulation alone, no laser light
[6] = test system: D. desulfuricans (ATCC#14563) biofilms; test: Treatment of peg biofilms with chemical disinfectant, anaerobic (Example X); assay type: cell-based, Desulfovibrio desulfuricans
Description: (§2) Homogenous biofilms of the sulfate reducing organisms D. vulgaris (ATCC#29579) and D. desulfuricans (ATCC#14563) were grown on hard plastic pegs using a previously published protocol and system (Innovotech, Calgary, Canada). Briefly, bacterial suspensions of D. vulgaris and D. desulfuricans consisting of 10^8 CFU/ml were prepared in modified Barrs medium for sulfate reducers (ATCC), then diluted 1:40. 200 μl of this inoculum was added to each well of a 96-well plate. 96-peg lids were then placed into the wells and the assembly was incubated at 37° C. on an Excella E2 gyrorotary shaker (Fisher Scientific) at 125 rpm for 24 hours. For both biofilm protocols, all inoculum and plates were prepared and incubated anaerobically. During the incubation period, the visible formation of an insoluble black residue in each well indicated bacterial metabolism, and after incubation a visible biofilm was evident on each pegs.
(§3) For treatment of biofilms with benzalkonium chloride (BAC), biofilms grown on pegs as described above were used. 96-peg lids were removed from the bacterial inoculum after 24 hours of incubation, and rinsed twice to remove any free-floating organisms by placing the peg lid in 96-well plates containing 300 μl of sterile water. Pegs were then placed in aqueous solutions containing either 0% (water only control), 0.01%, 0.1%, or 1% BAC for 30 seconds. After this exposure pegs were immediately placed in recovery media and processed/plated as described above for enumeration of surviving organisms. All BAC exposure conditions were run in triplicate in anaerobic conditions for each organism.

[7] = test system: D. vulgaris (ATCC#29579) biofilms; test: as above; assay type: cell-based, Desulfovibrio vulgaris
Description: as §2, §3

[8] = aerobic, 0.01% w/v aqueous methylene blue, 670 nm diode laser 20.6 J/cm2 (60 seconds), planktonic
[9] = anaerobic, 0.01% w/v aqueous methylene blue, 670 nm laser 20.6 J/cm2, planktonic
[10] = 30 second exposure to 0.01% aqueous solution
[11] = 30 second exposure to 0.1% aqueous solution
[12] = 30 second exposure to 1% aqueous solution

Compound | killing [1, 8] [%] | log10 reduction in viability vs. non-treated controls [1, 8] [log10] | log10 reduction in viability vs. non-treated controls ([1]; aerobic, 0.01% w/v methylene blue with 20 mM L-tryptophan, 670 nm laser 20.6 J/cm2, planktonic) [log10] | killing [1, 9] [%] | log10 reduction vs. non-treated control [1, 9] [log10] | log10 reduction from non-treated control ([1]; anaerobic, 0.01% w/v methylene blue with 20 mM L-tryptophan, 670 nm laser 20.6 J/cm2, planktonic) [log10] | antibacterial action ([1]; control: photosensitizer composition alone, no illumination) | reduction in viability [2] | reduction in biofilm viability [3] | decrease in viability compared to non-treated control [4] [log10] | inhibition at 0.1 % strength ([4]; Nitratidesulfovibrio vulgaris, read-out: decrease in viability compared to non-treated control) [%] | reduction in biofilm viability [5] | reduction in viability vs. non-treated control [6, 10] [log10] | reduction in viability vs. non-treated control [6, 11] [log10] | reduction in viability vs. non-treated control [6, 12] [log10] | reduction in viability vs. non-treated control [7, 10] [log10] | reduction in viability vs. non-treated control [7, 11] [log10] | reduction in viability vs. non-treated control [7, 12] [log10]
CN(C)c1ccc2nc3ccc(=[N+](C)C)cc-3sc2c1 [methylene blue] | > 99.99 | 4.4±2.3 | 1.7±0.6 | > 99.9 | 3.5±0.8 | 2.5±2.1 | No significant antibacterial action | did not result in a significant reduction in viability | Neither the methylene blue formulation nor the laser light alone led to any significant reduction | 1.5 | ~95 | Neither the methylene blue formulation nor the laser light alone led to any significant reduction | – | – | – | – | – | –
benzalkonium chloride [BAC] | – | – | – | – | – | – | – | – | – | – | – | – | 0.6 | 2.7 | 1.9 | 0.5 | 1.4 | 1.5

Source: patent US20090317293A1, “METHOD AND DEVICE FOR ELIMINATING MICROBES WITHIN INDUSTRIAL PIPELINES” (BioCorrosion Solutions Inc., priority 2008, published 2009)
